Patent US10227290B2, “Glycosphingolipids for use in modulating immune responses” (The Regents of the University of California, priority 2012, dated 2019)

Tested on: Peripheral blood mononuclear cells (PBMCs), CD3+Vα24+ NKT cells
Test: In vitro expansion of CD3+Vα24+ NKT cells from human PBMCs
Type: cell-based
Conditions: 13 days; 0.1 μg/ml KRN7000, 1 μg/ml α-GalCerBf, 1 μg/ml ceramideBf
Description: FIGS. 6A and 6B illustrate that α-GalCerBf binds human CD1d and activates human NKT cells in vitro. FIG. 6A: PBMCs were cultured for 13 days with 0.1 μg/mlKRN7000, 1 μg/ml α-GalCerBf, or 1 μg/ml ceramideBf. Dot plots show CD3^+Vα24^+NKT cells pre- and post-expansion. The data shown are representative of at least two individual experiments performed with six individual donors. FIG. 6B: Human NKT cells were purified after two rounds of expansion with 1 μg/ml α-GalCerBf and restimulated with 10 μg/ml α-GalCerBf in the presence or absence of control Ig or anti-Cd1d blocking antibodies. IFN-γ secretion was measured in supernatants 40-48 hours later. Data are representative of two independent experiments.
The capability of α-GalCerBf to stimulate freshly isolated NKT cells was determined. A first experiment was performed to determine whether Vα24^+ cells could be expanded in vitro with α-GalCerBf as previously described for KRN7000 (see, e.g., Rogers et al., J. Immunol. Meth. 285:197-214 (2004)). Peripheral blood mononuclear cells (PBMCs) were cultured with 0.1 μg/ml KRN7000, 1 μg/ml α-GalCerBf, or 1 μg/ml ceramideBf for 13 days. The presence of CD3 Vα24^+ cells was then assessed by flow cytometry. At least two individual experiments performed with six individual donors. […] IFN-γ secretion was measured in supernatants 40-48 hours later.

CCCCCCCCCCCCCCCCCCCCCCCCCC(=O)N[C@@H](CO[C@H]1O[C@H](CO)[C@H](O)[C@H](O)[C@H]1O)[C@H](O)[C@H](O)CCCCCCCCCCCCCC [KRN7000]
Expansion of a population of CD3+Vα24+ cells: showed an expansion
